Measured values as given in patent US20040156869A1, “2-substituted quinazolin-4-ylamine analogues” (Neurogen Corporation, priority 2002, published 2004).

Target: human capsaicin receptor (VR1) (Homo sapiens, UniProt Q8NER1)
Assay: Capsaicin receptor binding assay ([3H]RTX competition, VR1-transfected HEK293 membranes)

Sequence of human capsaicin receptor (VR1) (Q8NER1 whole entry): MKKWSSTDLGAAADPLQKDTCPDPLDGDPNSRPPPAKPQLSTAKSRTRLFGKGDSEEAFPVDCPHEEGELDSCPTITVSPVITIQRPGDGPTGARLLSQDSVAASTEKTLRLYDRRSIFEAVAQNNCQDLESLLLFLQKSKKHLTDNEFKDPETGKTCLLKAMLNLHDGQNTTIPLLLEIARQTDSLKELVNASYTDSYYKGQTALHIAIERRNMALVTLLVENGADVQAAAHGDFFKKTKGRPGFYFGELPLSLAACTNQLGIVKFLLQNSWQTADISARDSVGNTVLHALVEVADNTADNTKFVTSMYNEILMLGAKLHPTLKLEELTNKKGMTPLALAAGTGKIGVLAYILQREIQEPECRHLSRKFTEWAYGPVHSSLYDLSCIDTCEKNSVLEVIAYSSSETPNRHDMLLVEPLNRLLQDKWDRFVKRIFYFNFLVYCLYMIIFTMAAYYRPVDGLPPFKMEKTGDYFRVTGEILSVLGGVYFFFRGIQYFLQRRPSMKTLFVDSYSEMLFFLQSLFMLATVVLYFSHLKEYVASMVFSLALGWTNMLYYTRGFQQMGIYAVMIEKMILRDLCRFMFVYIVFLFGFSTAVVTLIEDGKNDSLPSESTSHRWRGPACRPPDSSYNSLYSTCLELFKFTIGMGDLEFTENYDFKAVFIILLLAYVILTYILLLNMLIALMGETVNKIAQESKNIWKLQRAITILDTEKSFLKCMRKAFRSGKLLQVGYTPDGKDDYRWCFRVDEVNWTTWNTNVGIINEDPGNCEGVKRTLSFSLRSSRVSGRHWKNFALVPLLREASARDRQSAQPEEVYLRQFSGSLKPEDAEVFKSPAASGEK

| Ki | Compound |
| --- | --- |
| < 1 µM | COCc1nc(Nc2ccc(C(F)(F)F)cc2)c2ccc(-c3ncccc3C(F)(F)F)nc2n1 [Compound 109, [2-Methoxymethyl-7-(3-trifluoromethyl-pyridin-2-yl)-pyrido[2,3-d]pyrimidin-4-yl]-(4-trifluoromethyl-phenyl)-amine] |
| < 1 µM | COCc1nc(Nc2ccc(C(F)F)cc2)c2ccc(-c3ncccc3C(F)(F)F)nc2n1 [Compound 240, (4-Difluoromethyl-phenyl)-[2-methoxymethyl-7-(3-trifluoromethyl-pyridin-2-yl)-pyrido[2,3-d]pyrimidin-4-yl]-amine] |
| < 1 µM | CC(C)(C)c1ccc(Nc2nc(CO)nc3cc(-c4ncccc4C(F)(F)F)cnc23)cc1 [Compound 201, [4-(4-tert-Butyl-phenylamino)-7-(3-trifluoromethyl-pyridin-2-yl)-pyrido[3,2-d]pyrimidin-2-yl]-methanol] |
| < 1 µM | CCC(C)c1ccc(Nc2nc(COC)nc3nc(-c4ncccc4Cl)ccc23)cc1 (centres unmarked) [Compound 63, (4-sec-Butyl-phenyl)-[7-(3-chloro-pyridin-2-yl)-2-methoxymethyl-pyrido[2,3-d]pyrimidin-4-yl]-amine] |
| < 1 µM | CCOC(=O)C1CCCN(CCc2nc(Nc3ccc(C(F)(F)F)cc3)c3ccc(-c4ncccc4C(F)(F)F)cc3n2)C1 (centres unmarked) [Compound 590, 1-{2-[4-(4-Trifluoromethyl-phenylamino)-7-(3-trifluoromethyl-pyridin-2-yl)-quinazolin-2-yl]-ethyl}-piperidine-3-carboxylic acid ethyl ester] |
| < 1 µM | COCc1cc2nc(-c3ncccc3C(F)(F)F)ccc2c(Nc2ccc(C(F)(F)F)cc2)n1 [Compound 295, [7-Methoxymethyl-2-(3-trifluoromethyl-pyridin-2-yl)-[1,6]naphthyridin-5-yl]-(4-trifluoromethyl-phenyl)-amine] |
| < 1 µM | COCc1nc(Nc2ccc(C3(C#N)CCC3)cc2)c2ccc(-c3ncccc3C)nc2n1 [Compound 149, 1-{4-[2-Methoxymethyl-7-(3-methyl-pyridin-2-yl)-pyrido[2,3-d]pyrimidin-4-ylamino]-phenyl}-cyclobutanecarbonitrile] |
| < 1 µM | CCN1CCCC1CNC(=O)c1nc(Nc2ccc(C(F)(F)F)cc2)c2ccc(-c3ncccc3C(F)(F)F)nc2n1 (centres unmarked) [Compound 431, 4-(4-Trifluoromethyl-phenylamino)-7-(3-trifluoromethyl-pyridin-2-yl)-pyrido[2,3-d]pyrimidine-2-carboxylic acid (1-ethyl-pyrrolidin-2-ylmethyl)-amide] |
| < 1 µM | CCCCN(CC)Cc1nc(Nc2ccc(C(F)(F)F)nc2)c2ccc(-c3ncccc3C(F)(F)F)cc2n1 [Compound 374, [2-[(Butyl-ethyl-amino)-methyl]-7-(3-trifluoromethyl-pyridin-2-yl)-quinazolin-4-yl]-(6-trifluoromethyl-pyridin-3-yl)-amine] |
| < 1 µM | CC(C)c1ccc(Nc2nc(CO)nc3cc(-c4ncccc4Cl)ccc23)cc1 [Compound 158, [7-(3-Chloro-pyridin-2-yl)-4-(4-isopropyl-phenylamino)-quinazolin-2-yl]-methanol] |
| < 1 µM | CCNC(=O)c1nc(Nc2ccc(C(F)(F)F)cc2)c2ccc(-c3ncccc3C(F)(F)F)nc2n1 [Compound 450, 4-(4-Trifluoromethyl-phenylamino)-7-(3-trifluoromethyl-pyridin-2-yl)-pyrido[2,3-d]pyrimidine-2-carboxylic acid ethylamide] |
| < 1 µM | C[C@@H]1CN(C(=O)c2nc(Nc3ccc(C(F)(F)F)cc3)c3ccc(-c4ncccc4C(F)(F)F)cc3n2)C[C@H](C)O1 [Compound 702, (2,6-Dimethyl-morpholin-4-yl)-[4-(4-trifluoromethyl-phenylamino)-7-(3-trifluoromethyl-pyridin-2-yl)-quinazolin-2-yl]-methanone (cis)] |
| < 1 µM | NC(=O)C1CCN(Cc2nc(Nc3ccc(C(F)(F)F)nc3)c3ccc(-c4ncccc4C(F)(F)F)cc3n2)CC1 [Compound 487, 1-[7-(3-Trifluoromethyl-pyridin-2-yl)-4-(6-trifluoromethyl-pyridin-3-ylamino)-quinazolin-2-ylmethyl]-piperidine-4-carboxylic acid amide] |
| < 1 µM | FC(F)(F)c1ccc(Nc2nc(COC3CCOCC3)nc3cc(-c4ncccc4C(F)(F)F)ccc23)cc1 [Compound 86, [2-(Tetrahydro-pyran-4-yloxymethyl)-7-(3-trifluoromethyl-pyridin-2-yl)-quinazolin-4-yl]-(4-trifluoromethyl-phenyl)-amine] |
| < 1 µM | COCc1nc(Nc2ccc(C(F)(F)F)nc2)c2ccc(-c3ncccc3C(F)(F)F)nc2n1 [Compound 147, [2-Methoxymethyl-7-(3-trifluoromethyl-pyridin-2-yl)-pyrido[2,3-d]pyrimidin-4-yl]-(6-trifluoromethyl-pyridin-3-yl)-amine] |
| < 1 µM | CCC(=O)N1CCC(c2nc(Nc3ccc(C(F)(F)F)cc3)c3ccc(-c4ncccc4C(F)(F)F)cc3n2)CC1 [Compound 694, 1-{4-[4-(4-Trifluoromethyl-phenylamino)-7-(3-trifluoromethyl-pyridin-2-yl)-quinazolin-2-yl]-piperidin-1-yl}-propan-1-one] |
| < 1 µM | COCCN(CCOC)Cc1nc(Nc2ccc(C(F)(F)F)cc2)c2ccc(-c3ncccc3C(F)(F)F)cc2n1 [Compound 344, [2-{[Bis-(2-methoxy-ethyl)-amino]-methyl}-7-(3-trifluoromethyl-pyridin-2-yl)-quinazolin-4-yl]-(4-trifluoromethyl-phenyl)-amine] |
| < 1 µM | CCCCN(CCCC)Cc1nc(Nc2ccc(C(F)(F)F)cc2)c2ncc(-c3ncccc3C(F)(F)F)cc2n1 [Compound 666, [2-Dibutylaminomethyl-7-(3-trifluonmethyl-pyridin-2-yl)-pyrido[3,2-d]pyrimidin-4-yl]-(4-trifluoromethyl-phenyl)-amine] |
| < 1 µM | FC(F)(F)c1ccc(Nc2nc(CCN3CCCCCC3)nc3cc(-c4ncccc4C(F)(F)F)ccc23)cc1 [Compound 402] |
| < 1 µM | CC1CCCN(Cc2nc(Nc3ccc(C(F)(F)F)cc3)c3ccc(-c4ncccc4C(F)(F)F)cc3n2)C1 (centres unmarked) [Compound 498, [2-(3-Methyl-piperidin-1-ylmethyl)-7-(3-yl)-quinazolin-4-yl]-(4-trifluoromethyl-phenyl)-amine] |
| < 1 µM | COCc1nc(Nc2ccc(C(F)(F)F)c(C)c2)c2ccc(-c3ncccc3C)nc2n1 [Compound 198, [2-Methoxymethyl-7-(3-methyl-pyridin-2-yl)-pyrido[2,3-d]pyrimidin-4-yl]-(3-methyl-4-trifluoromethyl-phenyl)-amine] |
| < 1 µM | C[C@H]1CN(Cc2nc(Nc3ccc(Cl)cc3)c3ccc(-c4ncccc4C(F)(F)F)cc3n2)C[C@H](C)O1 [Compound 642, (S,S)-(4-Chloro-phenyl)-[2-(2,6-dimethyl-morpholin-4-ylmethyl)-7-(3-trifluoromethyl-pyridin-2-yl)-quinazolin-4-yIl]amine] |
| < 1 µM | C[C@@H]1CN(Cc2nc(Nc3ccc(C(C)(C)C)cc3)c3ccc(-c4ncccc4C(F)(F)F)nc3n2)C[C@H](C)O1 [Compound 757, (4-tert-Butyl-phenyl)-[2-(2,6-dimethyl-morpholin-4-ylmethyl)-7-(3-trifluoromethyl-pyridin-2-yl)-pyrido[2,3-d]pyrimidin-4-yl]-amine (cis)] |
| < 1 µM | CCN(CC)C(=O)C(C)(C)c1ccc(Nc2nc(COC)nc3nc(-c4ncccc4C(F)(F)F)ccc23)cc1 [Compound 221, N,N-Diethyl-2-{4-[2-methoxymethyl-7-(3-trifluoromethyl-pyridin-2-yl)-pyrido[2,3-d]pyrimidin-4-ylamino]-phenyl}-isobutyramide] |
| < 1 µM | CCCCN(CCCC)CCc1nc(Nc2ccc(C(F)(F)F)cc2)c2ccc(-c3ncccc3C(F)(F)F)cc2n1 [Compound 420, [2-Dibutylaminoethyl-7-(3-trifluoromethyl-pyridin-2-yl)-quinazolin-4-yl]-(4-trifluoromethyl-phenyl)-amine] |
| < 1 µM | C[C@@H]1CN(Cc2nc(Nc3ccc(C(C)(C)C)nc3)c3ncc(-c4ncccc4Cl)cc3n2)C[C@H](C)O1 [Compound 632, (6-tert-Butyl-pyridin-3-yl)-[7-(3-chloro-pyridin-2-yl)-2-(2,6-dimethyl-morpholin-4-ylmethyl)-pyrido[3,2-d]pyrimidin-4-yl]-amine (cis)] |
| < 1 µM | Cc1cccnc1-c1ccc2c(Nc3ccc(C(C)C)cc3)nc(CN(C)C(C)C)nc2c1 [Compound 718, [2-[(Isopropyl-methyl-amino)-methyl]-7-(3-methyl-pyridin-2-yl)-quinazolin-4-yl]-(4-isopropyl-phenyl)-amine] |
| < 1 µM | CCN(CCc1nc(Nc2ccc(C(F)(F)F)cc2)c2ccc(-c3ncccc3C(F)(F)F)cc2n1)C1CCCCC1 [Compound 426, [2-[(Cyclohexyl-ethyl-amino)-ethyl]-7-(3-trifluoromethyl-pyridin-2-yl)-quinazolin-4-yl]-(4-trifluoromethyl-phenyl)-amine] |

| Compound | Ki |
| --- | --- |
| Cc1cc(Nc2nc(COCC(C)C)nc3nc(-c4ncccc4Cl)ccc23)ccc1C(F)(F)F [Compound 178, [7-(3-Chloro-pyridin-2-yl)-2-isobutoxymethyl-pyrido[2,3-d]pyrimidin-4-yl]-(3-methyl-4-trifluoromethyl-phenyl)-amine] | < 1 µM |
| CC(C)COCc1nc(Nc2ccc(C(F)(F)F)nc2)c2ccc(-c3ncccc3Cl)nc2n1 [Compound 177, [7-(3-Chloro-pyridin-2-yl)-2-isobutoxymethyl-pyrido[2,3-d]pyrimidin-4-yl]-(6-trifluoromethyl-pyridin-3-yl)-amine] | < 1 µM |
| CC(C)COCc1nc(Nc2ccc(S(C)(=O)=O)cc2)c2ccc(-c3ncccc3C(F)(F)F)nc2n1 [Compound 214, [2-Isobutoxymethyl-7-(3-trifluoromethyl-pyridin-2-yl)-pyrido[2,3-d]pyrimidin-4-yl]-(4-methanesulfonyl-phenyl)-amine] | < 1 µM |
| CCOc1ccc(Nc2nc(COCC(C)C)nc3nc(-c4ncccc4Cl)ccc23)cc1 [Compound 264, [7-(3-Chloro-pyridin-2-yl)-2-isobutoxymethyl-pyrido[2,3-d]pyrimidin-4-yl]-(4-ethoxy-phenyl)-amine] | < 1 µM |
